Experimental data published in patent publication US20250145585A1, “HETEROCYCLIC INHIBITORS OF IGF-1R FOR TREATMENT OF DISEASE” (HORIZON THERAPEUTICS IRELAND DAC, priority 2023, published 2025).

Target: T1, IGF-1R (Homo sapiens, UniProt P08069)
T1 construct: expressed in transfected cells
Test: Example B-2: IGF-1R Assay (PathHunter cell lines, EC80 agonist challenge, chemiluminescent detection)
Assay type: cell-based
Details: PathHunter cells, compound 60 minutes at 37° C., EC80 agonist 3 hours; read-out: IC50, Biological Activity against IGF-1R (Table B2)
Procedure, shortened: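 PathHunter cells were pre-incubated with compound for 60 min at 37° C (1% vehicle), then challenged with EC80 agonist for 3 h at room temperature. Chemiluminescent detection after 1 h gave % inhibition relative to EC80 and vehicle controls, from which IC50 was derived.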

T1 sequence (P08069 31-1367): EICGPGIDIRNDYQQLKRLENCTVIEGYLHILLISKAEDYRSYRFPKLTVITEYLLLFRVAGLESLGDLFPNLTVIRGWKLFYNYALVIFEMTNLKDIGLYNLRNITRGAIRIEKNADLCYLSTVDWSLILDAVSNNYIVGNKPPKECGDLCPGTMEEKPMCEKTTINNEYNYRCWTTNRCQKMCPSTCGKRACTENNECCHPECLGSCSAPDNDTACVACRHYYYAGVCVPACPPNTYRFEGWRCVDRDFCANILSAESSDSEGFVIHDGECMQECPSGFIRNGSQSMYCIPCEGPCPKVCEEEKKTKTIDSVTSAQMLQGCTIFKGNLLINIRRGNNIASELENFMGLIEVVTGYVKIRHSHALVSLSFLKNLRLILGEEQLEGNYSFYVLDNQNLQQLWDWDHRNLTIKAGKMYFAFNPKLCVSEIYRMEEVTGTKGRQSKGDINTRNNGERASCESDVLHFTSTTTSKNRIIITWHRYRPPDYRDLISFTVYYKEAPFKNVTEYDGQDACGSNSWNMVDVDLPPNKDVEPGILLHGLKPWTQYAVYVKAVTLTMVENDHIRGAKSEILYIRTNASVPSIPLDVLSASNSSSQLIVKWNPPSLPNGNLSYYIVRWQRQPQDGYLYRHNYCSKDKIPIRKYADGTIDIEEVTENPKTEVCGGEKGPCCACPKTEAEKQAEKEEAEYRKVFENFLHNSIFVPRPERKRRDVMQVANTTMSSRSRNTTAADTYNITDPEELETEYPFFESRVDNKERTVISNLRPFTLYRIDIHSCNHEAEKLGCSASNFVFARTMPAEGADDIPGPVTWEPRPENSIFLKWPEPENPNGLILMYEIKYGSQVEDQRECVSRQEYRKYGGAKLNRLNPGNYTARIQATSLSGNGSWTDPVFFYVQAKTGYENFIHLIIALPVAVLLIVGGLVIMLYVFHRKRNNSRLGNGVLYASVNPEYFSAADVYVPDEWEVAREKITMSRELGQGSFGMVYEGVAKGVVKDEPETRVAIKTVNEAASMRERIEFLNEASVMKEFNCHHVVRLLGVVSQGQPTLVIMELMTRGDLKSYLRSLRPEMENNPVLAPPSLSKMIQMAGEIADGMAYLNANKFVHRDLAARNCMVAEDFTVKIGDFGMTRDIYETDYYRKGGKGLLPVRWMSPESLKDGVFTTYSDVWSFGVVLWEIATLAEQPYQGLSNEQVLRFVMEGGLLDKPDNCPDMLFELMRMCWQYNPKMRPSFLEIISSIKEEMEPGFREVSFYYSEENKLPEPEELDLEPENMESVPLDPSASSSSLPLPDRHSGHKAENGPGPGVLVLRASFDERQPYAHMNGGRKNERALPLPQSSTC

Row | IC50 [nM] | Structure (SMILES)
1 | ≤ 500 | CC(C)Nc1cc(CN2C(=O)N(c3ccc4c(c3)N(S(C)(=O)=O)CC43CCC3)C(=O)C2(C)C)ccn1 [Compound 195, 1-((2-(isopropylamino)pyridin-4-yl)methyl)-5,5-dimethyl-3-(1′-(methylsulfonyl)spiro[cyclobutane-1,3′-indolin]-6′-yl)imidazolidine-2,4-dione]
2 | ≤ 500 | CC1(C)CN(C(=O)C2CC2)c2cc(N3C(=O)N(Cc4ccnc(N[C@H]5CCOC5)c4)C(C)(C)C3=O)ccc21 [Compound 196, (S)-3-(1-(cyclopropanecarbonyl)-3,3-dimethylindolin-6-yl)-5,5-dimethyl-1-((2-((tetrahydrofuran-3-yl)amino)pyridin-4-yl)methyl)imidazolidine-2,4-dione]
3 | 2000 to 10000 | CC(C)Nc1cc(CN2C(=O)N(c3cnc4c(c3)N(C)CC4(C)C)C(=O)C2(C)C)ccn1 [Compound 197, 1-((2-(isopropylamino)pyridin-4-yl)methyl)-5,5-dimethyl-3-(1,3,3-trimethyl-2,3-dihydro-1H-pyrrolo[3,2-b]pyridin-6-yl)imidazolidine-2,4-dione]
4 | ≤ 500 | COC[C@@H](C)Nc1cc(CN2C(=O)N(c3ccc4c(c3)OCC4(C)C)C(=O)C2(C)C)ccn1 [Compound 198, (R)-3-(3,3-dimethyl-2,3-dihydrobenzofuran-6-yl)-1-((2-((1-methoxypropan-2-yl)amino)pyridin-4-yl)methyl)-5,5-dimethylimidazolidine-2,4-dione]
5 | ≤ 500 | CC1(C)COc2cc(N3C(=O)N(Cc4ccnc(NC5CCOCC5)c4)C(C)(C)C3=O)ccc21 [Compound 199, 3-(3,3-dimethyl-2,3-dihydrobenzofuran-6-yl)-5,5-dimethyl-1-((2-((tetrahydro-2H-pyran-4-yl)amino)pyridin-4-yl)methyl)imidazolidine-2,4-dione]
6 | ≤ 500 | CC(C)Nc1cc(CN2C(=O)N(c3ccc4c(c3)N(S(C)(=O)=O)CC43CC3)C(=O)C2(C)C)ccn1 [Compound 200, 1-((2-(isopropylamino)pyridin-4-yl)methyl)-5,5-dimethyl-3-(1′-(methylsulfonyl)spiro[cyclopropane-1,3′-indolin]-6′-yl)imidazolidine-2,4-dione]
7 | ≤ 500 | CC1(C)CN(S(C)(=O)=O)c2cc(N3C(=O)N(Cc4ccnc(N[C@H]5CCOC5)c4)C(C)(C)C3=O)ccc21 [Compound 201, (S)-3-(3,3-dimethyl-1-(methylsulfonyl)indolin-6-yl)-5,5-dimethyl-1-((2-((tetrahydrofuran-3-yl)amino)pyridin-4-yl)methyl)imidazolidine-2,4-dione]
8 | ≤ 500 | COC[C@@H](C)Nc1cc(CN2C(=O)N(c3ccc4c(c3)N(C)CC4(C)C)C(=O)C2(C)C)ccn1 [Compound 202, (R)-1-((2-((1-methoxypropan-2-yl)amino)pyridin-4-yl)methyl)-5,5-dimethyl-3-(1,3,3-trimethylindolin-6-yl)imidazolidine-2,4-dione]
9 | ≤ 500 | COC[C@@H](C)Nc1cc(CN2C(=O)N(c3ccc4c(c3)N(S(C)(=O)=O)CC4(C)C)C(=O)C2(C)C)ccn1 [Compound 203, (R)-3-(3,3-dimethyl-1-(methylsulfonyl)indolin-6-yl)-1-((2-((1-methoxypropan-2-yl)amino)pyridin-4-yl)methyl)-5,5-dimethylimidazolidine-2,4-dione]
10 | ≤ 500 | CC1(C)C(=O)N(c2ccc3c(c2)N(S(C)(=O)=O)CC32CCC2)C(=O)N1Cc1ccnc(N[C@H]2CCOC2)c1 [Compound 204, (S)-5,5-dimethyl-3-(1′-(methylsulfonyl)spiro[cyclobutane-1,3′-indolin]-6′-yl)-1-((2-((tetrahydrofuran-3-yl)amino)pyridin-4-yl)methyl)imidazolidine-2,4-dione]
11 | ≤ 500 | COC[C@@H](C)Nc1cc(CN2C(=O)N(c3ccc4c(c3)N(S(C)(=O)=O)CC43CCC3)C(=O)C2(C)C)ccn1 [Compound 205, (R)-1-((2-((1-methoxypropan-2-yl)amino)pyridin-4-yl)methyl)-5,5-dimethyl-3-(1′-(methylsulfonyl)spiro[cyclobutane-1,3′-indolin]-6′-yl)imidazolidine-2,4-dione]
